Laboratory results as given in paper PMC11161644, “An effective and rapidly degradable disinfectant from disinfection byproducts” (Nature Communications, 2024).
Read-outs that look alike come from different tables or passages of the source.

Legend:
[1] = test system: E. coli (ATCC 25922); test: Inactivation of E. coli by disinfectants (membrane filter enumeration, contact time 5 min); assay type: cell-based, Escherichia coli; conditions: for log reduction at 3000 µg/mL: Escherichia coli, ATCC25922, 5 min, dose 3000 mg L-1, 5 min, read-out: Log (N/N0); for E. coli inactivation rate constant k / Log reduction (Mean ± SD): pH 7.2, contact time 5 min; for Log reduction (Mean ± SD): E. coli
Experimental: The chemicals and reagents used are detailed in Supplementary Note 1. The bacteria E. coli (ATCC 25922) and S. aureus (ATCC 25923) were cultured aerobically in Luria-Bertani broth (Sigma-Aldrich) and Tryptone Soya broth (Oxoid), respectively, at 37 °C for 16 h. The fungus C. albicans (ATCC 14053) was aerobically cultured in Sabouraud Dextrose broth (Difco) at 37 °C for 24 h. The microorganism cells were harvested by centrifugation at 1200×g (10 min, 4 °C) and resuspended in phosphate-buffered saline (PBS, 10 mM, pH 7.2). The disinfection experiments were performed in PBS solutions (10 mM, pH 7.2) with an initial concentration of E. coli, S. aureus, or C. albicans of 10^6‒10^7 cells per milliliter. A contact time of 5 min was used in accordance with the recommended time range of 0.25–10 min by USEPA for surface disinfection. Preliminary tests were conducted to determine the appropriate range of DBP doses. The appropriate dose range was established when the lowest and highest doses could achieve <1-log and >3-log of microbial inactivation, respectively. Based on the preliminary results, a series of doses of DBPs were added to the cell suspensions at room temperature (22 ± 1 °C). After the contact time of 5 min, the microorganism cells were enumerated following a membrane filter method. Briefly, serial 10-fold dilutions were conducted for the disinfected samples and the control sample without disinfection. Each diluted suspension was subjected to filtration through 0.45-μm membrane, which was then placed on a petri dish. The Petri dishes containing E. coli, S. aureus, and C. albicans were incubated in m-FC medium (Becton Dickinson & Co) at 45 °C for 24 h, in Tryptone Soya broth at 37 °C for 24 h and in Sabouraud Dextrose broth at 37 °C for 24 h, respectively. After incubation, the colony-forming units within a statistically reasonable range (20–80) were counted.
The impact of pH on the disinfection efficiencies of DBPs was examined. E. coli (ATCC 25922) was used as the test strain. The disinfection experiments were performed in 10 mM PBS solutions (pH 6.2, 7.2, and 8.2) with an initial E. coli concentration of 10^6‒10^7 cells per milliliter. To initiate the disinfection, a DBP was dosed with a bacteria suspension at a predetermined concentration. After the given contact time (5 min) at room temperature (22 ± 1 °C), the bacteria were enumerated following the membrane filter method. The bacteria concentrations in the 10 mM PBS solutions (pH 6.2, 7.2, and 8.2) without the addition of DBPs were used as controls.

[2] = UPLC/ESI-tqMS time profile of 2,6-DCQ and its degradation products in simulated seawater (pH 8.2, darkness); OH-DCQ formation; conditions: 2,6-DCQ degradation, pH 8.2, darkness
Experimental: A Waters UPLC system coupled with ESI-tqMS was used to characterize the degradation products of 2,6-DCQ. The UPLC separation was performed using an HSS T3 column (100 × 2.1 mm, 1.8 μm particle size, Waters) with a column temperature of 35 °C. A gradient eluent of methanol–water was applied at a flow rate of 0.4 mL min^−1. The gradient program was set as follows: methanol/water (v/v) ratio changed linearly from 5/95 to 90/10 in the first 8 min and then returned to 5/95 during 8.0‒8.1 min, which was held for 2.9 min for re-equilibration. The ESI-tqMS was set as follows: ESI negative mode, capillary voltage 2.8 kV, cone voltage 10–50 V (depending on analytes), cone gas flow 50 L h^−1, source temperature 120 °C, desolvation temperature 400 °C, desolvation gas flow 800 L h^−1, collision energy 15–50 eV (depending on analytes), collision gas (argon) flow 0.25 mL min^−1, and mass resolution 15 (1-unit resolution).
The degradation of 2,6-DCQ in seawater was simulated by adding 10 mg L^−1 2,6-DCQ to 50 mL ultrapure water, which was adjusted to pH 8.2 with 5 mM sodium carbonate (to simulate the alkalinity in seawater and also to be compatible with the subsequent UPLC/ESI-tqMS analysis). The sample was kept in darkness for 0–24 h, during which the pH of the sample was maintained at 8.1 ± 0.1. At a designated reaction time, 7.5 μL of the sample was injected into the UPLC system. For a nonhalogenated degradation product, the selected ion recording (SIR) mode with a dwell time of 0.05 s was adopted to obtain the retention time. For halogenated degradation products, the multiple reaction monitoring mode with a dwell time of 0.05 s was used to obtain the retention time and the isotopic abundance ratio. To investigate the time-dependent profile of 2,6-DCQ and its degradation products, the peak area of each compound was determined using the SIR mode in the UPLC/ESI-tqMS analysis.
The second aliquot was subjected to analysis of total organic halogen to quantify the collected OH-DCQ. The determination of total organic halogen was based on Standard Method 5320B[52], with modifications of using off-line ion chromatography for halide detection. Briefly, the aliquot was dissolved in 100 mL ultrapure water and acidified to pH 2 with concentrated nitric acid[52] prior to adsorption onto pre-packed activated carbon columns (Mitsubishi). A three-channel adsorption module (TXA03C, Mitsubishi Chemical Analytech) was used for adsorption. An AQF-100 automatic quick furnace (Mitsubishi Chemical Analytech) was used for pyrolysis. During the pyrolysis process, the chlorine atoms in OH-DCQ were converted to chloride. The chloride ion concentration was determined using an ICS-3000 ion chromatography system (Dionex). 2,6-DCQ was used as a standard compound for measuring total organic halogen to determine the recovery of the analysis. The total organic halogen analysis was conducted in duplicate.

| SMILES | log reduction at 3000 µg/mL ([1]; pH 6.2, E. coli, pH 6.2) | log reduction at 3000 µg/mL ([1]; pH 7.2, E. coli, pH 7.2) | log reduction at 3000 µg/mL ([1]; pH 8.2, E. coli, pH 8.2) | E. coli inactivation rate constant k [1] | Peak area ([2]; 0 h) | Peak area ([2]; 0.25 h) | Peak area ([2]; 0.5 h) | Peak area ([2]; 0.75 h) | Peak area ([2]; 1 h) | Peak area ([2]; 1.25 h) | Peak area ([2]; 1.5 h) | Peak area ([2]; 1.75 h) | Peak area ([2]; 2 h) | Peak area ([2]; 2.25 h) | Peak area ([2]; 2.5 h) | Peak area ([2]; 2.75 h) | Peak area ([2]; 3 h) | Peak area ([2]; 3.25 h) | Peak area ([2]; 3.5 h) | Peak area ([2]; 3.75 h) | further results |
| --- | --- | --- | --- | --- | --- | --- | --- | --- | --- | --- | --- | --- | --- | --- | --- | --- | --- | --- | --- | --- | --- |
| O=C(O)c1cc(I)ccc1O [5-ISA, 5-iodosalicylic acid] | 0.247 | 0.373 | 0.282 | < 0.01 L mg‒1 h‒1 | – | – | – | – | – | – | – | – | – | – | – | – | – | – | – | – | – |
| O=C1C=C(Cl)C(=O)C(OC2=C(Cl)C(=O)C(Cl)=CC2=O)=C1 [SIR 333] | – | – | – | – | 25 | 566 | 1172 | 1708 | 2037 | 2462 | 2725 | 2905 | 3055 | 3331 | 3689 | 3558 | 3681 | 3675 | 3524 | 3765 | Peak area ([2]; 4 h): 3768; Peak area ([2]; 4.5 h): 3886; Peak area ([2]; 5 h): 4092; Peak area ([2]; 5.5 h): 3835; Peak area ([2]; 6 h): 3706; Peak area ([2]; 8 h): 3365; Peak area ([2]; 10 h): 2830; Peak area ([2]; 12 h): 2308; Peak area ([2]; 14 h): 1768; Peak area ([2]; 16 h): 1379; Peak area ([2]; 18 h): 1089; Peak area ([2]; 20 h): 896; Peak area ([2]; 24 h): 463 |
| O=C1C=C(Cl)C(=O)C=C1O [SIR 157, 3-hydroxyl-6-monochloro-1,4-benzoquinone] | – | – | – | – | 131 | 1090 | 1291 | 1521 | 1656 | 1663 | 1773 | 1891 | 1830 | 2020 | 2128 | 2115 | 2124 | 2427 | 2418 | 2409 | Peak area ([2]; 4 h): 2447; Peak area ([2]; 4.5 h): 2594; Peak area ([2]; 5 h): 2821; Peak area ([2]; 5.5 h): 2983; Peak area ([2]; 6 h): 3514; Peak area ([2]; 8 h): 4489; Peak area ([2]; 10 h): 4560; Peak area ([2]; 12 h): 4418; Peak area ([2]; 14 h): 4868; Peak area ([2]; 16 h): 4755; Peak area ([2]; 18 h): 4648; Peak area ([2]; 20 h): 5024; Peak area ([2]; 24 h): 4289 |
| O=C(O)c1cc(Cl)ccc1O [5-CSA, 5-chlorosalicylic acid] | 0.218 | 0.273 | 0.304 | < 0.01 L mg‒1 h‒1 | – | – | – | – | – | – | – | – | – | – | – | – | – | – | – | – | – |
| O=C1C=C(Cl)C(=O)C=C1Cl [2,5-DCQ] | – | – | – | – | – | – | – | – | – | – | – | – | – | – | – | – | – | – | – | – | Log reduction (Mean ± SD) ([1]; dose 7.5 mg L−1): 0.77 ± 0.14; Log reduction (Mean ± SD) ([1]; dose 15 mg L−1): 3.78 ± 0.40 |
| O=C(O)c1cc(Br)ccc1O [5-BSA, 5-bromosalicylic acid] | 0.221 | 0.132 | 0.331 | < 0.01 L mg‒1 h‒1 | – | – | – | – | – | – | – | – | – | – | – | – | – | – | – | – | – |
